Measured values: patent publication US5037812A, “Tumor cell growth-inhibiting pharmaceutical compositions containing phosphino-hydrocarbon-gold, silver or copper complexes” (priority 1986, dated 1991)
Values joined by “and” are separate entries in the source; they are usually repeats but may differ in a detail not shown here. Equal entries are not always repeated.

Experiments:
[1] = tested on: B16 melanoma cells; assay: B16 melanoma cell assay, clonogenic capacity in vitro after two-hour exposure; type: cell-based; settings: 2-hour exposure; read-out: IC50: concentration which inhibits cloning efficiency of B16 melanoma cells by 50%
Experimental: The B16 melanoma cell assay measures the ability of a compound to inhibit the clonogenic capacity of cells in vitro following a two-hour exposure to the compound.
B16 melanoma (highly metastatic subline, F10) are used and maintained as monolayer cultures in Minimal Essential Media (Grand Island Biological Col., Grand Island, N.Y.) supplemented with 10% calf serum, 1% antibiotics in a 5% CO2 humidified incubator at 37° C. Asynchronous populations of cells are harvested and replated to 5000 cells/plate in sterile 60 mm×15 mm petri plates. Plates are incubated overnight to allow attachment of the cells to the plate. Cells are treated with a Formula (I) or Formula (II) compound/under sterile conditions, allowed to react for 2 hours followed by aspiration of medium. Plates are washed one time with 5 ml of phosphate buffered saline (PBS), followed by the addition of 5 ml of fresh medium. Plates are incubated for 5 days at 37° C. in a CO2 incubator. Viability is measured by the ability of a cell to form a colony of greater than 50 cells. Colonies are fixed with 0.5% crystal violet in 95% ethanol. Plates are dried and counted with a Biotran III Automatic Count Totalizer (New Brunswick Scientific Co., Edison, N.J.). Mean and standard deviation of triplicate samples are determined for each drug concentration. The data are analyzed plotting the log of the survival fraction (number of colonies in drug treated plates/number of colonies in controls) versus the drug concentration.
^a Concentration which inhibits cloning efficiency of B16 melanoma
cells by 50% on a 2hour exposure

[2] = tested on: P388 leukemia; assay: ip P388 leukemia mouse model; type: in vivo, mice (B6D2F1); settings: for MTD (maximally tolerated dose): B6D2F female mice, ip qDX5; for ILS max (maximum increase in lifespan): mice bearing ip P388 leukemia, ip days 1-5 at MTD, slash-separated figures are separate experiments
Experimental: This tumor system is widely accepted as an antitumor agent screening tool because it is sensitive to virtually all of the clinically active antineoplastic agents; quantitative and reproducible; amenable for large-scale screening; and predictive for activity in other animal tumor models.
10^6 P388 leukemia cells are inoculated ip in B6D2F1 mice. Twenty-four hours later, if the tumor inoculum proves to be free of bacterial contamination (as determined by 24 hours incubation in thioglycollate broth), animals are randomized into groups of 6 and housed in shoebox cages. […] An equal volume of saline or water is added; if the drug comes out of solution an equal volume of Cremophor (polyethoxylated castor oil) is added and then saline or water, as to a concentration such that the desired dose is delivered in 0.5 ml. The final concentration of DMA, ethanol or Cremophor is 10 percent. Dilutions for lower doses are made with saline or water so that there is a decreasing proportion of organic solvents in the vehicle with decreasing dosage. […] Formulations are prepared immediately prior to injection. The Formula (I) and Formula (II) compounds are administered ip on Days 1 through 5 (i.e., treatment is initiated 24 hrs after tumor inoculation). Each experiment includes three groups of 6 animals as untreated controls and animals treated with a positive control, cisplatin, at two dose levels. Animals are weighed as a group on Days 1, 5 and 9 and average weight change (Δwt.) is used as a reflection of toxicity. Each experiment also includes an inoculum titration--groups of 8 mice inoculated ip with 10^5 to 10^0 P388 leukemia cells. The titration is used as a quality control check for the performance of the tumor model. Animals are monitored daily for mortality and experiments are terminated after 45 days. The endpoint is median survival time (MST) and increase in lifespan (ILS) which is the percentage of increase in MST relative to untreated controls.

[3] = tested on: M5076 reticulum cell sarcoma; assay: ip M5076 reticulum cell sarcoma in mice; type: in vivo, mice (B6D2F female); settings: for MTD (maximally tolerated dose): B6D2F female mice, ip qDX10; for ILS max (maximum increase in lifespan): mice bearing ip M5076, ip qDX10 at MTD, slash-separated figures are separate experiments
Experimental: Another tumor model used for evaluation of tumor growth inhibiting drugs is intraperitoneally implanted M5076 reticulum cell sarcoma in mice. […] Drugs are administered ip. Daily treatment is begun 24 hours after implantation and is continued for ten days. The treatment regimen for M5076 is more prolonged than for P388 because of the slower growth rate and longer control survival time of the M5076 tumor. Compounds of Formula (I) and Formula (II) were evaluated in this assay. An evaluation of several compounds of Formula (I) in the M5076 reticulum cell sarcoma assay at their maximally tolerated dose (MTD) is set forth in Table III. An ILS of ≥25% indicates activity in this tumor model.
^(b) maximally tolerated dose for B6D2F female mice on an ip qDX10
^(c) maximum increase in lifespan produced in mice bearing ip M5076

[4] = tested on: B16 melanoma; assay: in vivo ip B16 melanoma assay; design: species or system mice (B6D2F1); settings: ip qDX10; for MTD (maximally tolerated dose): B6D2F1 mice; for ILS (maximum increase in lifespan): mice bearing ip B16 melanoma, slash-separated figures are separate experiments
Experimental: Daily treatment is begun 24 hours after tumor implantation and is continued daily for ten (10) days. The route of drug administration is ip. The mice are monitored daily for survival for sixty (60) days. Antitumor activity is assessed by prolongation of median survival time. An ILS of ≥25% indicates activity in this tumor model.
^(b) maximally tolerated dose for B6D2F1 mice on an ip qDX10
^(c) maximum increase in lifespan produced in mice bearing ip B16

[5] = solubility in 9:1 water:ethanol (HPLC of filtrate); settings: stirred 15 hours, 0.45 μm PTFE filter, HPLC
Experimental: Such solubility was determined as follows: The compound in question was dissolved or suspended in absolute ethanol (250 mg solid per 1.0 ml ethanol). To the resulting solution or suspension, water (9.0 times the volume of ethanol) was added. This suspension was stirred vigorously for 15 hours, then filtered through a 0.45 μm poly(tetrafluoroethylene) (PTFE) filter. […] The HPLC system was as follows:
Column PLRP-S, 5μm, obtained from Polymer Laboratories, Inc.
Mobile Phase 9:1 acetonitrile:0.1% tetra-n-butylammonium hydrogen sulfate (50° C., 1.0 ml-min-^-1)
Detection Ultraviolet (250 nm)

**Q.** With `[Au+].[Cl-].c1ccc(P(CCCP(c2ccccc2)c2ccccc2)c2ccccc2)cc1.c1ccc(P(CCCP(c2ccccc2)c2ccccc2)c2ccccc2)cc1` [compound 4, Bis[1,3-Bis(diphenylphosphino)propane]Gold(I) Chloride] as the molecule, how does the IC50 [1] read?
**A.** 600 nM

**Q.** And the “MTD (maximally tolerated dose)” value [2]?
**A.** 3 mg/kg

**Q.** What about the “ILS max (maximum increase in lifespan)” value [2] of the same molecule?
**A.** 89 ± 28%

**Q.** What about the “MTD (maximally tolerated dose)” value [3] of the same molecule?
**A.** 2 mg/kg

**Q.** What about the “ILS max (maximum increase in lifespan)” value [3] of the same molecule?
**A.** 116%

**Q.** What about the “MTD (maximally tolerated dose)” value [4] of the same molecule?
**A.** 2 mg/kg

**Q.** And the “ILS (maximum increase in lifespan)” value [4]?
**A.** 34% and 28% and 40%

**Q.** Which “MTD (maximally tolerated dose)” value [2] does the source give for `CCP(CC)CCP(c1ccccc1)c1ccccc1.CCP(CC)CCP(c1ccccc1)c1ccccc1.[Au+].[Cl-]` [compound 8] here?
**A.** 3 mg/kg

**Q.** What about the “ILS max (maximum increase in lifespan)” value [2] of the same molecule?
**A.** 54 ± 16%

**Q.** And the “MTD (maximally tolerated dose)” value [3]?
**A.** 2 mg/kg

**Q.** What about the “ILS max (maximum increase in lifespan)” value [3] of the same molecule?
**A.** 46%

**Q.** With `C1=C[PH](c2ccccc2)(c2ccccc2)[Cu+]2([PH]1(c1ccccc1)c1ccccc1)[PH](c1ccccc1)(c1ccccc1)C=C[PH]2(c1ccccc1)c1ccccc1.[Cl-]` (stereo not drawn) [compound 13, Bis[cis-1,2-bis(diphenylphosphino)ethylene]Copper(I) Chloride] as the molecule, how does the “MTD (maximally tolerated dose)” value [2] read?
**A.** 3 mg/kg

**Q.** What about the “ILS max (maximum increase in lifespan)” value [2] of the same molecule?
**A.** 70 ± 23%

**Q.** What about the “MTD (maximally tolerated dose)” value [3] of the same molecule?
**A.** 2 mg/kg

**Q.** What about the “ILS max (maximum increase in lifespan)” value [3] of the same molecule?
**A.** 40%

**Q.** What about the “MTD (maximally tolerated dose)” value [4] of the same molecule?
**A.** 0.75 mg/kg

**Q.** What about the “ILS (maximum increase in lifespan)” value [4] of the same molecule?
**A.** 42%

**Q.** What does the source list for `CC(O)C(=O)[O-].[Au+].c1ccc(P(CCP(c2ccccc2)c2ccccc2)c2ccccc2)cc1.c1ccc(P(CCP(c2ccccc2)c2ccccc2)c2ccccc2)cc1` [compound 15, Bis[1,2-bis(diphenylphosphino)ethane]gold(I) 2-hydroxypropanoate]?
**A.** MTD (maximally tolerated dose) [2]: 2 mg/kg; ILS max (maximum increase in lifespan) [2]: 71 ± 12%; MTD (maximally tolerated dose) [4]: 1.5 mg/kg; ILS (maximum increase in lifespan) [4]: 30%; Solubility in 9:1 Water:Ethanol [5]: 5200 µg/mL

**Q.** Which “MTD (maximally tolerated dose)” value [2] does the source give for `O=C([O-])C1OC(O)C(O)C(O)C1O.[Au+].c1ccc(P(CCP(c2ccccc2)c2ccccc2)c2ccccc2)cc1.c1ccc(P(CCP(c2ccccc2)c2ccccc2)c2ccccc2)cc1` [compound 16, Bis[1,2-bis(diphenylphosphino)ethane]gold(I) glucuronate] here?
**A.** 2 mg/kg

**Q.** What about the “ILS max (maximum increase in lifespan)” value [2] of the same molecule?
**A.** 64 ± 17%

**Q.** And the “MTD (maximally tolerated dose)” value [4]?
**A.** 1.5 mg/kg

**Q.** What about the “ILS (maximum increase in lifespan)” value [4] of the same molecule?
**A.** 40%

**Q.** What about the “Solubility in 9:1 Water:Ethanol” value [5] of the same molecule?
**A.** 300 µg/mL

**Q.** What does the source list for `CC(=O)C(=O)[O-].[Au+].c1ccc(P(CCP(c2ccccc2)c2ccccc2)c2ccccc2)cc1.c1ccc(P(CCP(c2ccccc2)c2ccccc2)c2ccccc2)cc1` [compound 21, Bis[1,2-bis(diphenylphosphino)ethane]gold(I) 2-oxopropanoate]?
**A.** MTD (maximally tolerated dose) [2]: 2 mg/kg; ILS max (maximum increase in lifespan) [2]: 60% and 50%; Solubility in 9:1 Water:Ethanol [5]: 200 µg/mL

**Q.** With `O=C([O-])CCCO.[Au+].c1ccc(P(CCP(c2ccccc2)c2ccccc2)c2ccccc2)cc1.c1ccc(P(CCP(c2ccccc2)c2ccccc2)c2ccccc2)cc1` [compound 22, Bis[1,2-(diphenylphosphino)ethane]gold(I) 4-hydroxybutanoate] as the molecule, how does the “MTD (maximally tolerated dose)” value [2] read?
**A.** 2 mg/kg

**Q.** And the “ILS max (maximum increase in lifespan)” value [2]?
**A.** 65% and 70%

**Q.** And the “Solubility in 9:1 Water:Ethanol” value [5]?
**A.** 2900 µg/mL

**Q.** Which “MTD (maximally tolerated dose)” value [2] does the source give for `O=C([O-])CO.[Au+].c1ccc(P(CCP(c2ccccc2)c2ccccc2)c2ccccc2)cc1.c1ccc(P(CCP(c2ccccc2)c2ccccc2)c2ccccc2)cc1` [compound 23, Bis[1,2-bis(diphenylphosphino)ethane]gold(I) hydroxyacetate] here?
**A.** 2 mg/kg

**Q.** What about the “ILS max (maximum increase in lifespan)” value [2] of the same molecule?
**A.** 55% and 75%

**Q.** And the “Solubility in 9:1 Water:Ethanol” value [5]?
**A.** 8600 µg/mL

**Q.** What does the source list for `CCC(O)C(=O)[O-].[Au+].c1ccc(P(CCP(c2ccccc2)c2ccccc2)c2ccccc2)cc1.c1ccc(P(CCP(c2ccccc2)c2ccccc2)c2ccccc2)cc1` [compound 24, Bis[1,2-bis(diphenylphosphino)ethane]gold(I) DL-2-hydroxybutanoate]?
**A.** MTD (maximally tolerated dose) [2]: 2 mg/kg; ILS max (maximum increase in lifespan) [2]: 55% and 80%; Solubility in 9:1 Water:Ethanol [5]: 900 µg/mL

**Q.** Which IC50 [1] does the source give for “Bis[1,2-bis(diphenylphosphino)ethane]Silver(I) Nitrate [compound 2]” here?
**A.** 4000 nM

**Q.** And the “MTD (maximally tolerated dose)” value [2]?
**A.** 3 mg/kg

**Q.** And the “ILS max (maximum increase in lifespan)” value [2]?
**A.** 89% and 90%

**Q.** What about the “MTD (maximally tolerated dose)” value [3] of the same molecule?
**A.** 2 mg/kg

**Q.** What about the “ILS max (maximum increase in lifespan)” value [3] of the same molecule?
**A.** 48%

**Q.** With “Bis[cis-1,2-bis(diphenylphosphino)ethylene]Gold(I) Chloride [compound 3]” as the molecule, how does the IC50 [1] read?
**A.** 2000 nM

**Q.** And the “MTD (maximally tolerated dose)” value [2]?
**A.** 2 mg/kg

**Q.** And the “ILS max (maximum increase in lifespan)” value [2]?
**A.** 92 ± 26%

**Q.** What about the “MTD (maximally tolerated dose)” value [3] of the same molecule?
**A.** 2.4 mg/kg

**Q.** And the “ILS max (maximum increase in lifespan)” value [3]?
**A.** 69%

**Q.** What about the “MTD (maximally tolerated dose)” value [4] of the same molecule?
**A.** 1.5 mg/kg

**Q.** And the “ILS (maximum increase in lifespan)” value [4]?
**A.** 35%

**Q.** Which results are given for “Tris[1,2-bis(diphenylphosphino)ethane]Dicopper(I) Chloride”?
**A.** MTD (maximally tolerated dose) [2]: 2 mg/kg; ILS max (maximum increase in lifespan) [2]: 100% and 115%; MTD (maximally tolerated dose) [3]: 1.6 mg/kg; ILS max (maximum increase in lifespan) [3]: 60%; MTD (maximally tolerated dose) [4]: 1 mg/kg; ILS (maximum increase in lifespan) [4]: 54%

**Q.** For “Tris{bis-[1,2-bis(diphenylphosphino)ethane]gold(I)} citrate [compound 19]”, which “MTD (maximally tolerated dose)” value [2] is on record?
**A.** 4 mg/kg

**Q.** And the “ILS max (maximum increase in lifespan)” value [2]?
**A.** 95% and 90%

**Q.** What about the “Solubility in 9:1 Water:Ethanol” value [5] of the same molecule?
**A.** 30 µg/mL
